Test results as given in publication PMC8199339, “Propellanes as Rigid Scaffolds for the Stereodefined Attachment of σ-Pharmacophoric Structural Elements to Achieve σ Affinity” (International Journal of Molecular Sciences, 2021).
Read-outs that look alike come from different tables or passages of the source.

Tests used:
[1] = biological target: T1, σ2 receptor (Rattus norvegicus, UniProt Q5U3Y7); experiment: σ2 receptor binding assay, radioligand [3H]di-o-tolylguanidine, rat liver membrane preparation; details: for inhibition at 1 µM / inhibition of the radioligand binding, σ2: test compound concentration of 1 µM; for Ki: read-out: Ki (nM) σ2
T1 construct: The thawed rat liver membrane preparation; tissue Harlan-Winkelmann, Borchen, Germany (animal organs); host or cells: rat liver membrane homogenate
T1 sequence (Q5U3Y7 1-176): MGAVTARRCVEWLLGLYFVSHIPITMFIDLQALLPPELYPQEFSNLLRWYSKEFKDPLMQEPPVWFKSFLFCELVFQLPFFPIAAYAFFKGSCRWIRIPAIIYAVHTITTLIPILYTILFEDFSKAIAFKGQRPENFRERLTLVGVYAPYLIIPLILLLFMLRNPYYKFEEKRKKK

[2] = biological target: T2, σ1 receptor (Cavia porcellus, UniProt Q60492); experiment: σ1 receptor binding assay, radioligand [3H]-(+)-pentazocine, guinea pig brain membrane preparation; details: for inhibition at 1 µM / inhibition of the radioligand binding, σ1: test compound concentration of 1 µM
T2 construct: thawed membrane preparation of guinea pig brain; tissue Harlan-Winkelmann, Borchen, Germany (animal organs); host or cells: guinea pig brain membrane homogenate

[3] = [3H]-(+)-pentazocine, guinea pig brain, mean of three experiments (± SEM), values without SEM mean of two, read-out: Ki (nM) σ1
[4] = approximate statement in text, read-out: σ1 affinity, Ki (in the range of)

T2 sequence (Q60492 whole entry): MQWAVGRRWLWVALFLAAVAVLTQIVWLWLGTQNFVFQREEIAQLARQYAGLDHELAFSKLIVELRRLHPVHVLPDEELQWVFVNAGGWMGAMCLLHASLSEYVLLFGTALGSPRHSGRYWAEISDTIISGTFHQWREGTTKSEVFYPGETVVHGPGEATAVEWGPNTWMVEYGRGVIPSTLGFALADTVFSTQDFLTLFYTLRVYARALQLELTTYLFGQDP

SMILES | inhibition at 1 µM [1] | inhibition at 1 µM [2] | Ki [2, 3] | other results
COc1ccc(NC2CC34CCCCC3(C2)CC(OC(=O)Nc2cc(C)ccc2OC)C4)cc1Cl (stereo not drawn) [8-anti-4n, [(8-anti-11-anti and 8-anti-11-syn)-11-(3-Chloro-4-methoxyphenylamino)-[4.3.3]propellan-8-yl] N-(2-methoxy-5-methylphenyl)carbamate] | 0% | 0% |  | 
COc1ccc(C)cc1NC(=O)OC1CC23CCCCC2(CC(NCc2ccc([N+](=O)[O-])cc2)C3)C1 (stereo not drawn) [8-anti-4g, [(8-anti-11-anti and 8-anti-11-syn)-11-(4-Nitrobenzylamino)[4.3.3]propellan-8-yl] N-(2-methoxy-5-methylphenyl)carbamate] |  | 24% |  | Ki [1]: 1950 nM
COc1ccc(C)cc1NC(=O)N(Cc1ccccc1)C1CC23CCCCC2(CC(O)C3)C1 (stereo not drawn) [syn,syn-22, 1-benzyl-1-{(8-syn,11-syn)-11-hydroxy[4.3.3]propellan-8-yl}-3-(2-methoxy-5-methylphenyl)urea] |  |  |  | inhibition of the radioligand binding, σ2 ([1]; 1 µM): 0%; inhibition of the radioligand binding, σ1 [2]: 0%
O=C1CC23CCCCC2(C1)CC(NC(=O)Nc1ccc(F)c(F)c1)C3 (stereo not drawn) [anti-25, 1-(3,4-Difluorophenyl)-3-(8-anti-11-oxo[4.3.3]propellan-8-yl)urea] |  |  |  | inhibition of the radioligand binding, σ2 [1]: 0%; inhibition of the radioligand binding, σ1 ([2]; 1 µM): 0%
COc1ccc(C)cc1NC(=O)OC1CC23CCCCC2(CC(NCc2ccco2)C3)C1 (mixture of isomers) [8-anti-4i, [(8-anti-11-anti and 8-anti-11-syn)-11-[(Furan-2-yl-mehtyl)amino][4.3.3]propellan-8-yl] N-(2-methoxy-5-methylphenyl)carbamate] |  |  | 924 nM | Ki [1]: > 6000 nM; Ki [2, 4]: ~1000 nM
COc1ccc(C)cc1NC(=O)OC1CC23CCCCC2(CC(NCc2ccc(Cl)c(Cl)c2)C3)C1 (stereo not drawn) [8-anti-4d, [(8-anti-11-anti and 8-anti-11-syn)-11-(3,4-Dichlorobenzylamino)[4.3.3]propellan-8-yl] N-(2-methoxy-5-methylphenyl)carbamate] | 4% | 0% |  | 
COc1ccc(C)cc1NC(=O)OC1CC23CCCCC2(CC(NCCO)C3)C1 (stereo not drawn) [8-anti-4s, [(8-anti-11-anti and 8-anti-11-syn)-11-(2-Hydroxyethyl-1-amino)[4.3.3]propellan-8-yl] N-(2-methoxy-5-methylphenyl)carbamate] | 0% | 12% |  | 
COc1ccc(C)cc1NC(=O)OC1CC23CCCCC2(CC(Nc2ccc(N)cc2)C3)C1 (stereo not drawn) [8-anti-4o, [(8-anti-11-anti and 8-anti-11-syn)-11-(4-Aminophenylamino)[4.3.3]propellan-8-yl] N-(2-methoxy-5-methylphenyl)carbamate] |  | 16% |  | Ki [1]: 12000 nM
COc1ccc(C)cc1NC(=O)OC1CC23CCCCC2(CC(NCc2ccc(Cl)cc2)C3)C1 (stereo not drawn) [8-anti-4c, [(8-anti-11-anti and 8-anti-11-syn)-11-(4-Chlorobenzylamino)[4.3.3]propellan-8-yl] N-(2-methoxy-5-methylphenyl)carbamate] | 12% | 6% |  | 
COc1ccc(C)cc1NC(=O)OC1CC23CCCCC2(CC(NCc2cc(C(F)(F)F)cc(C(F)(F)F)c2)C3)C1 (stereo not drawn) [8-anti-4f, [(8-anti-11-anti and 8-anti-11-syn)-11-[(3,5-Bis(trifluoromethyl)benzylamino]-[4.3.3]propellan-8-yl] N-(2-methoxy-5-methylphenyl)carbamate] | 0% | 0% |  | 
COc1ccc(C)cc1NC(=O)OC1CC23CCCCC2(CC(NCCc2ccccc2)C3)C1 (stereo not drawn) [8-anti-4p, [(8-anti-11-anti and 8-anti-11-syn)-11-(Phenethylamino)[4.3.3]propellan-8-yl] N-(2-methoxy-5-methylphenyl)carbamate] | 0% |  | 668 nM | 
COc1ccc(NC2CC34CCCCC3(C2)CC(OC(=O)Nc2cc(C)ccc2OC)C4)cc1 (stereo not drawn) [8-anti-4m, [(8-anti-11-anti and 8-anti-11-syn)-11-(4-Methoxyphenylamino)[4.3.3]propellan-8-yl] N-(2-methoxy-5-methylphenyl)carbamate] | 0% | 11% |  | 
COc1ccc(C)cc1NC(=O)OC1CC23CCCCC2(CC(NCc2ccc(N(C)C)cc2)C3)C1 (stereo not drawn) [8-anti-4h, [(8-anti-11-anti and 8-anti-11-syn)-11-[(4-Dimethylamino)benzylamino]-[4.3.3]propellan-8-yl] N-(2-methoxy-5-methylphenyl)carbamate] | 0% | 0% |  | 
COc1ccc(C)cc1NC(=O)N(Cc1ccccc1)C1CC23CCCCC2(CC(O)C3)C1 (stereo not drawn) [anti,anti-22, 1 -Benzyl-1-{(8-anti,11-anti)-11-hydroxy[4.3.3]propellan-8-yl}-3-(2-methoxy-5-methylphenyl)urea] |  |  |  | inhibition of the radioligand binding, σ2 ([1]; 1 µM): 0%; inhibition of the radioligand binding, σ1 [2]: 0%
COc1ccc(C)cc1NC(=O)OC1CC23CCCCC2(CC(NCc2ccc(C)cc2C)C3)C1 (stereo not drawn) [8-anti-4e, [(8-anti-11-anti and 8-anti-11-syn)-11-(2,4-Dimethylbenzylamino)[4.3.3]propellan-8-yl] N-(2-methoxy-5-methylphenyl)carbamate] |  | 0% |  | Ki [1]: 1100 nM
COc1ccc(C)cc1NC(=O)OC1CC23CCCCC2(CC(Nc2ccccc2)C3)C1 (stereo not drawn) [8-anti-4l, [(8-anti-11-anti and 8-anti-11-syn)-11-(Phenylamino)[4.3.3]propellan-8-yl] N-(2-methoxy-5-methylphenyl)carbamate] | 0% | 13% |  | 
COc1ccc(C)cc1NC(=O)OC1CC23CCCCC2(CC(NCCc2c[nH]c4ccccc24)C3)C1 (stereo not drawn) [8-anti-4k, [(8-anti-11-anti and 8-anti-11-syn)-11-[2-(Indol-3-yl)ethylamino][4.3.3]propellan-8-yl] N-(2-methoxy-5-methylphenyl)carbamate] | 0% |  | 1200 nM | Ki [2, 4]: ~1000 nM
COc1ccc(C)cc1NC(=O)OC1CC23CCCCC2(CC(NCCCc2ccccc2)C3)C1 (stereo not drawn) [8-anti-4q, [(8-anti-11-anti and 8-anti-11-syn)-11-(3-Phenylpropylamino)[4.3.3]propellan-8-yl] N-(2-methoxy-5-methylphenyl)carbamate] | 0% | 22% |  | 
COc1ccc(C)cc1NC(=O)N(Cc1ccccc1)C1CC23CCCCC2(CC(O)C3)C1 (stereo not drawn) [syn,anti-22, 1 -Benzyl-1-{(8-syn,11-anti)-11-hydroxy[4.3.3]propellan-8-yl}-3-(2-methoxy-5-methylphenyl)urea] |  |  |  | inhibition of the radioligand binding, σ2 ([1]; 1 µM): 8%; inhibition of the radioligand binding, σ1 [2]: 0%

Further lines, with some results ahead:

inhibition at 1 µM [1] | inhibition at 1 µM [2] | Ki [2, 3] | SMILES | other results
0% | 0% |  | O=C(Nc1ccc(F)c(F)c1)NC1CC23CCCCC2(CC(O)C3)C1 (stereo not drawn) [anti,anti-26, 1-(3,4-Difluorophenyl)-3-(8-anti-11-anti-11-hydroxy[4.3.3]propellan-8-yl)urea] | 
0% |  | 276 nM | COc1ccc(C)cc1NC(=O)OC1CC23CCCCC2(CC(NCc2ccco2)C3)C1 (mixture of isomers) [8-syn-4i, [(8-syn-11-syn and 8-syn-11-anti)-11-[(Furan-2-yl-mehtyl)amino][4.3.3]propellan-8-yl] N-(2-methoxy-5-methylphenyl)carbamate] | 
0% |  |  | O=C1CC23CCCCC2(C1)CC(NC(=O)Nc1ccc(F)c(F)c1)C3 (stereo not drawn) [syn-25, 1-(3,4-. Difluorophenyl)-3-(8-syn-11-oxo[4.3.3]propellan-8-yl)urea] | inhibition of the radioligand binding, σ1 ([2]; 1 µM): 10%
13% | 5% |  | NC1CC23CCCCC2(CCC3)C1 (stereo not shown) [compound 16] | 
 |  | 750 nM | c1ccc(CNC2CC34CCCCC3(C2)CC2(C4)OCCO2)cc1 (stereo not drawn) [syn-14] | inhibition of the radioligand binding, σ2 ([1]; listed as syn- 14, 1 µM): 7%
 | 5% |  | COc1ccc(C)cc1NC(=O)OC1CC23CCCCC2(CC(NCC(C)C)C3)C1 (stereo not drawn) [8-anti-4u, [(8-anti-11-anti and 8-anti-11-syn)-11-(Isobutylamino)[4.3.3]propellan-8-yl] N-(2-methoxy-5-methylphenyl)carbamate] | Ki [1]: 854 nM
2% |  | 454 nM | COc1ccc(C)cc1NC(=O)OC1CC23CCCCC2(CC(NCCCCCO)C3)C1 (stereo not drawn) [8-anti-4t, [(8-anti-11-anti and 8-anti-11-syn)-11-(5-Hydroxypentylamino)[4.3.3]propellan-8-yl] N-(2-methoxy-5-methylphenyl)carbamate] | 
 |  | 1400 nM | c1ccc(CNC2CC34CCCCC3(C2)CC2(C4)OCCO2)cc1 (stereo not drawn) [anti-14, (11′-anti)-Spiro-([1,3]dioxolane-2,8′-(N-benzyl[4.3.3]propellan))-11′-amine] | inhibition of the radioligand binding, σ2 ([1]; 1 µM): 0%
 | 0% |  | COc1ccc(C)cc1NC(=O)N(Cc1ccccc1)C1CC23CCCCC2(CC(O)C3)C1 (stereo not drawn) [anti,syn-22, 1-benzyl-1-{(8-anti,11-syn)-11-hydroxy[4.3.3]propellan-8-yl}-3-(2-methoxy-5-methylphenyl)urea] | inhibition of the radioligand binding, σ2 ([1]; 1 µM): 17%
39% |  | 594 nM | c1ccc(CNC2CC34CCCCC3(CCC4)C2)cc1 (stereo not shown) [compound 8] | reduction of σ1 affinity compared to azapropellane 9a ([2]; compared to 9a): 35 fold; selectivity for the σ1 receptor over the σ2 receptor ([2]; σ1 over σ2): at least 10 fold
27% |  | 619 nM | OC1CC23CCCCC2(C1)CC(NCc1ccccc1)C3 (mixture of isomers) [11-syn-13, [(8-syn-11-syn and 8-syn-11-anti)-11-(Benzylamino)[4.3.3]propellan-8-ol] | 
